“And” between values parts separate entries of the source, which are not always exact repeats. Equal values may be shown once.
What was measured:
Plasmodium berghei [1] = experiment: Antimalarial effect against trophozoite-induced Plasmodium berghei in mice (Mus musculus) after 40 mg/kg subcutaneous dose; assay type: functional
Mus musculus [2] = experiment: (§1) Number of toxic deaths at a dose of 640 mg/kg; assay type: toxicity, organism-based; design: dose 640 mg/kg; conditions: in vivo
[3] = The ratio of SD90 of the quinine hydrochloride, to the SD90 of the test substance for the Dose of 50 mg/kg; assay type: functional
Plasmodium berghei [4] = experiment: Antimalarial effect against trophozoite-induced Plasmodium berghei in mice (Mus musculus) at 640 mg/kg subcutaneous dose; assay type: functional; conditions: 640 mg/kg
Plasmodium berghei [5] = experiment: Antimalarial effect against trophozoite-induced Plasmodium berghei in mice (Mus musculus) at 160 mg/kg subcutaneous dose; assay type: functional
Plasmodium berghei [6] = experiment: Antimalarial activity against trophozoite-induced Plasmodium berghei in mice (Mus musculus); assay type: functional
Plasmodium berghei [7] = experiment: Antimalarial effect against trophozoite-induced Plasmodium berghei in mice (Mus musculus) at 80 mg/kg subcutaneous dose; assay type: functional
Plasmodium berghei [8] = experiment: Antimalarial effect against trophozoite-induced Plasmodium berghei in mice (Mus musculus) at 320 mg/kg subcutaneous dose; assay type: functional
Plasmodium berghei [9] = experiment: Antimalarial effect against trophozoite-induced Plasmodium berghei in mice (Mus musculus) after 20 mg/kg subcutaneous dose; assay type: functional
Mus musculus [10] = experiment: as §1; assay type: functional
Mus musculus [11] = experiment: (§2) The ratio of SD90 of the quinine hydrochloride, to the SD90 of the test substance for the Dose of 8.5 mg/kg; assay type: functional
[12] = as §2; assay type: functional
Plasmodium berghei [13] = experiment: Antimalarial activity against trophozoite-induced Plasmodium berghei in mice (Mus musculus) at 160 mg/kg subcutaneous dose; assay type: functional; conditions: 160 mg/kg
Mus musculus [14] = experiment: Number of mice cured at a subcutaneous dose of 160 mg/kg.; assay type: functional
Mus musculus [15] = experiment: Antimalarial effect against trophozoite induced Plasmodium berghei in mice (Mus musculus) at dosage of 160 mg/kg after subcutaneous administration; No. of mice (Mus musculus) surviving after 60 days 1; assay type: functional
Mus musculus [16] = experiment: Antimalarial effect against trophozoite-induced Plasmodium berghei in mice (Mus musculus) at dosage of 80 mg/kg after subcutaneous administration; assay type: functional
Mus musculus [17] = experiment: Number of mice cured at a dose of 320 mg/kg sc; assay type: functional; conditions: route subcutaneous
Mus musculus [18] = experiment: Antimalarial effect against trophozoite-induced Plasmodium berghei in mice (Mus musculus) at dosage of 80 mg/kg after subcutaneous administration; No. of mice (Mus musculus) surviving after 60 days 1; assay type: functional
[19] = The ratio of SD90 of the quinine hydrochloride, to the SD90 of the test substance for the Dose of >30 mg/kg; assay type: functional
Mus musculus [20] = experiment: Number of mice cured at a dose of 40 mg/kg sc; assay type: functional; conditions: route subcutaneous
[21] = The ratio of SD90 of the quinine hydrochloride, to the SD90 of the test substance for the Dose of 0.28 mg/kg; assay type: functional
Mus musculus [22] = experiment: Number of mice cured at a dose of 640 mg/kg sc; assay type: functional; conditions: route subcutaneous, 640 mg/kg
Mus musculus [23] = experiment: Number of mice cured at a dose of 80 mg/kg sc; assay type: functional; conditions: route subcutaneous
Mus musculus [24] = experiment: Number of mice cured at a subcutaneous dose of 320 mg/kg.; assay type: functional; conditions: 320 mg/kg

SMILES: CCN(CC)CCNc1nc(Nc2ccc(N3CCN(C)CC3)cc2)nc2ccccc12
- MST (Plasmodium berghei [1]; 40 mg/kg): 1 days and 0.8 days
- No. of toxic deaths (Mus musculus [2]): 3
- Ratio [3]: 1.5
- MST (Plasmodium berghei [4]): 6.8 days and 6.3 days
- MST (Plasmodium berghei [5]; 160 mg/kg): 4.8 days and 4.2 days
- SD90 (Plasmodium berghei [6]): 50 mg/kg/day
- MST (Plasmodium berghei [7]): 3.4 days
- MST (Plasmodium berghei [8]): 5.2 days
- MST (Plasmodium berghei [9]): 0.2 days
- No. of toxic deaths (Mus musculus [10]): 3

SMILES: CCN(CC)C1CCC(Nc2nc(Nc3ccc(Cl)c(Cl)c3)nc3ccccc23)CC1 (stereo not given)
- Ratio (Mus musculus [11]): 8.8
- Ratio [12]: 8.8
- MST (Plasmodium berghei [1]; 40 mg/kg): 10.1 days and 10.5 days
- MST (Plasmodium berghei [13]): 13.9 days and 13.7 days
- SD90 (Plasmodium berghei [6]): 8.5 mg/kg/day
- No. of survivals (Mus musculus [14]): 1
- MST (Mus musculus [15]): 13.7 days
- MST (Plasmodium berghei [8]): 22.9 days
- MST (Mus musculus [16]): 10.4 days
- No. of cured (Mus musculus [17]): 5
- MST (Plasmodium berghei [9]): 0.9 days
- MST (Mus musculus [18]): 10.4 days

SMILES: CCOc1ccc(Nc2nc(NCCN(CC)CC)c3ccc(Cl)cc3n2)cc1CN(CC)CC
- MST (Plasmodium berghei [1]): 0.6 days
- No. of toxic deaths (Mus musculus [2]): 5
- Ratio [19]: <2.5
- MST (Plasmodium berghei [5]): 0.8 days
- SD90 (Plasmodium berghei [6]): >30 mg/kg/day

SMILES: CCc1nc(N)nc(N)c1-c1ccc(Cl)cc1 [PYRIMETHAMINE]
- No. of survivals (Mus musculus [20]): 1
- Ratio [21]: 270
- No. of survivals (Mus musculus [22]): 1 and 2
- SD90 (Plasmodium berghei [6]): 0.28 mg/kg/day
- No. of survivals (Mus musculus [14]): 5
- No. of survivals (Mus musculus [23]): 3
- No. of survivals (Mus musculus [24]): 2 and 3
- MST (Plasmodium berghei [9]): 7.7 days

Reference: ChEMBL document CHEMBL1121775, “Synthesis and antimalarial effects of N2-aryl-N4-[(dialkylamino)alkyl]- and N4-aryl-N2-[(dialkylamino)alkyl]-2,4-quinazolinediamines” (J Med Chem, 1981)
